# Patent US10336697B2, “Spiro[cyclobutane-1,3′-indolin]-2′-one derivatives as bromodomain inhibitors” (Orion Corporation, priority 2015, dated 2019)
# Structures can show the parent of a compound that is named as a salt.
# Target: Bet BRD4 full length bromo-domain protein (Homo sapiens, UniProt O60885)
# Test: Bet bromodomain TR-FRET assay (displacement of acetyl histone peptide)
# Assay type: binding
# Details: Bet BRD4 full length bromodomain protein, 300 nM acetyl histone peptide substrate, read-out: IC50
row,Compound,IC50 [nM]
1,"O=C1Nc2c(OC3CCS(=O)(=O)CC3)cc(NS(=O)(=O)c3ccc(Cl)cc3F)cc2C12CCC2 [Compound 144, 4-Chloro-N-(7′-((1,1-dioxidotetrahydro-2H-thiopyran-4-yl)oxy)-2′-oxospiro[cyclobutane-1,3′-indolin]-5′-yl)-2-fluorobenzenesulfonamide]",< 600
2,"COc1ccccc1S(=O)(=O)Nc1cc(OCc2cncc(F)c2)c2c(c1)C1(CCC1)C(=O)N2 [Compound 149, N-(7′-((5-fluoropyridin-3-yl)methoxy)-2′-oxospiro[cyclobutane-1,3′-indolin]-5′-yl)-2-methoxybenzenesulfonamide]",< 600
3,"O=C1Nc2c(Nc3ccncc3)cc(NS(=O)(=O)c3ccc(F)cc3F)cc2C12CCC2 [Compound 62, 2,4-Difluoro-N-(2′-oxo-7′-(pyridin-4-ylamino)spiro[cyclobutane-1,3′-indolin]-5′-yl)benzenesulfonamide]",> 1000
4,"COc1ccccc1S(=O)(=O)Nc1cc(OC(C)c2cccnc2)c2c(c1)C1(CCC1)C(=O)N2 (single isomer, unassigned) [Compound 152, 2-methoxy-N-(2′-oxo-7′-(1-(pyridin-3-yl)ethoxy)spiro[cyclobutane-1,3′-indolin]-5′-yl)benzenesulfonamide]",< 600
5,"COc1ccccc1S(=O)(=O)Nc1cc(OC2CCN(C)CC2)c2c(c1Cl)C1(CCC1)C(=O)N2 [Compound-215, N-(4′-chloro-7′-((1-methylpiperidin-4-yl)oxy)-2′-oxospiro-[cyclobutane-1,3′-indolin]-5′-yl)-2-methoxybenzenesulfonamide]",600 to 1000
6,"CN1CCC(NC(=O)c2cc(NS(=O)(=O)c3ccc(Br)cc3F)cc3c2NC(=O)C32CCC2)CC1 [Compound 74, 5′-((4-Bromo-2-fluorophenyl)sulfonamido)-N-(1-methylpiperidin-4-yl)-2′-oxospiro[cyclobutane-1,3′-indoline]-7′-carboxamide]",< 600
7,"COc1ccccc1S(C)(=O)=Nc1cc([N+](=O)[O-])c2c(c1)C1(CCC1)C(=O)N2 (stereo not drawn) [Compound-181, 5′-(((2-Methoxyphenyl)(methyl)(oxo)-l6-sulfanylidene)amino)-7′-nitrospiro[cyclobutane-1,3′-indolin]-2′-one]",> 1000
8,"COc1ccccc1S(=O)(=O)Nc1cc(OC(C)c2ccccn2)c2c(c1)C1(CCC1)C(=O)N2 (single isomer, unassigned) [Compound 151, 2-Methoxy-N-(2′-oxo-7′-(1-(pyridin-2-yl)ethoxy)spiro[cyclobutane-1,3′-indolin]-5′-yl)benzenesulfonamide]",< 600
9,"CC(Oc1cc(NS(=O)(=O)c2ccc(Cl)cc2F)cc2c1NC(=O)C21CCC1)c1ccccn1 (single isomer, unassigned) [Compound 156, 4-Chloro-2-fluoro-N-(2′-oxo-7′-(1-(pyridin-2-yl)ethoxy)spiro[cyclobutane-1,3′-indolin]-5′-yl)benzenesulfonamide]",< 600
10,"CN1CCC(Oc2cc(NC(=O)/C=C/c3ccccc3)cc3c2NC(=O)C32CCC2)CC1 [compound 219, N-(7′-((1-methylpiperidin-4-yl)oxy)-2′-oxospiro[cyclobutane-1,3′-indolin]-5′-yl)cinnamamide]",< 600
11,"CN1CCCC(Oc2cc(NS(=O)(=O)c3ccc(Cl)cc3F)cc3c2NC(=O)C32CCC2)C1 (stereo not drawn) [Compound 131, 4-Chloro-2-fluoro-N-(7′-((1-methylpiperidin-3-yl)oxy)-2′-oxospiro[cyclobutane-1,3′-indolin]-5′-yl)benzenesulfonamide]",600 to 1000
12,"COc1ccc(F)cc1S(=O)(=O)Nc1cc(OC2CCN(C)CC2)c2c(c1)C1(CCC1)C(=O)N2 [Compound 129, 5-Fluoro-2-methoxy-N-(7′-((1-methylpiperidin-4-yl)oxy)-2′-oxospiro[cyclobutane-1,3′-indolin]-5′-yl)benzenesulfonamide]",< 600
13,"O=C1Nc2c(OCC3CNCCO3)cc(NS(=O)(=O)c3ccc(Cl)cc3F)cc2C12CCC2 (stereo not drawn) [compound 202, 4-Chloro-2-fluoro-N-(7′-(morpholin-2-ylmethoxy)-2′-oxospiro[cyclobutane-1,3′-indolin]-5′-yl)benzenesulfonamide]",< 600
14,"O=C1Nc2c(NC3CCCNC3)cc(NS(=O)(=O)c3ccc(F)cc3F)cc2C12CCC2 (stereo not drawn) [Compound 71, 2,4-Difluoro-N-(2′-oxo-7′-(piperidin-3-ylamino)spiro[cyclobutane-1,3′-indolin]-5′-yl)benzenesulfonamide hydrochloride]",< 600
15,"CN1CCC(Oc2cc(NS(=O)(=O)c3ccc(F)cc3Cl)cc3c2NC(=O)C32CCC2)CC1 [Compound 134, 2-Chloro-4-fluoro-N-(7′-((1-methylpiperidin-4-yl)oxy)-2′-oxospiro[cyclobutane-1,3′-indolin]-5′-yl)benzenesulfonamide]",< 600
16,"COc1cc(F)ccc1S(=O)(=O)Nc1cc(Cc2cccc(F)c2)c2c(c1)C1(CCC1)C(=O)N2 [Compound 96, 4-Fluoro-N-(7′-(3-fluorobenzyl)-2′-oxospiro[cyclobutane-1,3′-indolin]-5′-yl)-2-methoxybenzenesulfonamide]",< 600
17,"CN1CCCC(Nc2cc(NS(=O)(=O)c3ccc(F)cc3F)cc3c2NC(=O)C32CCC2)C1 (single isomer, unassigned) [Compound 34, 2,4-Difluoro-N-(7′-((1-methylpiperidin-3-yl)amino)-2′-oxospiro[cyclobutane-1,3′-indolin]-5′-yl)benzenesulfonamide]",< 600
18,"CN1CCC(Oc2cc(NS(=O)(=O)c3ccccc3Cl)cc3c2NC(=O)C32CCC2)CC1 [Compound 133, 2-Chloro-N-(7′-((1-methylpiperidin-4-yl)oxy)-2′-oxospiro[cyclobutane-1,3′-indolin]-5′-yl)benzenesulfonamide]",< 600

# Next, values leading:
row,IC50 [nM],Compound
1,< 600,"COc1ccccc1S(=O)(=O)Nc1cc(OCc2ccccn2)c2c(c1)C1(CCC1)C(=O)N2 [Compound 158, 2-Methoxy-N-(2′-oxo-7′-(pyridin-2-ylmethoxy)spiro[cyclobutane-1,3′-indolin]-5′-yl)benzenesulfonamide]"
2,< 600,"O=C1C=C(Nc2cc(NS(=O)(=O)c3ccc(F)cc3F)cc3c2NC(=O)C32CCC2)CCN1 [Compound 76, 2,4-Difluoro-N-(2′-oxo-7′-((6-oxo-1,2,3 ,6-tetrahydropyridin-4-yl)-amino)spiro[cyclobutane-1,3′-indolin]-5′-yl)benzenesulfonamide]"
3,> 1000,"CN1CCC(NC(=O)c2cc(NS(=O)(=O)N3CCCCC3)cc3c2NC(=O)C32CCC2)CC1 [Compound 85, N-(1-methylpiperidin-4-yl)-2′-oxo-5′-(piperidine-1-sulfon amido)spiro[cyclobutane-1,3′-indoline]-7′-carboxamide]"
4,< 600,"COc1ccccc1S(=O)(=O)Nc1cc(NC2=CC(=O)NCC2)c2c(c1)C1(CCC1)C(=O)N2 [Compound 77, 2-Methoxy-N-(2′-oxo-7′-((6-oxo-1,2,3,6-tetrahydropyridin-4-yl)amino)spiro[cyclobutane-1,3′-indolin]-5′-yl)benzenesulfonamide]"
5,> 1000,"COc1ccccc1S(=O)(=O)Nc1cc(B(O)O)c2c(c1)C1(CCC1)C(=O)N2 [Compound-217, (5′-((2-Methoxyphenyl)sulfonamido)-2′oxospiro[cyclobutane-1,3′-indolin]-7′-yl)boronic acid]"
6,< 600,"O=C1Nc2c(OCc3ccc(F)cn3)cc(NS(=O)(=O)c3ccc(Cl)cc3F)cc2C12CCC2 [Compound 147, 4-Chloro-2-fluoro-N-(7′-((5-fluoropyridin-2-yl)methoxy)-2′-oxospiro[cyclobutane-1,3′-indolin]-5′-yl)benzenesulfonamide]"
7,< 600,"CCN1CCC(Oc2cc(NS(=O)(=O)c3ccccc3OC)cc3c2NC(=O)C32CCC2)CC1 [Compound 135, N-(7′-((1-ethylpiperidin-4-yl)oxy)-2′-oxospiro[cyclobutane-1,3′-indolin]-5′-yl)-2-methoxybenzenesulfonamide]"
8,< 600,"COc1ccccc1S(=O)(=O)Nc1cc(OC2CCN(CCO)CC2)c2c(c1)C1(CCC1)C(=O)N2 [Compound-209, N-(7′-((1-(2-hydroxyethyl)piperidin-4-yl)oxy)-2′-oxospiro[cyclobutane-1,3′-indolin]-5′-yl)-2-methoxybenzenesulfonamide]"
9,< 600,"CN1CCC(Oc2cc(NS(=O)(=O)c3ccc(F)cc3Br)cc3c2NC(=O)C32CCC2)CC1 [Compound 132, 2-Bromo-4-fluoro-N-(7′-((1-methylpiperidin-4-yl)oxy)-2′-oxospiro[cyclobutane-1,3′-indolin]-5′-yl)benzenesulfonamide]"
10,< 600,CN1CCC(Oc2cc(NS(=O)(=O)c3ccccc3F)cc3c2NC(=O)C32CCC2)CC1 [compound 128]
11,< 600,"COc1ccccc1S(=O)(=O)Nc1cc(OCCN2CCCC2)c2c(c1)C1(CCC1)C(=O)N2 [Compound 167, 2-Methoxy-N-(2′-oxo-7′-(2-(pyrrolidin-1-yl)ethoxy)spiro[cyclobutane-1,3′-indolin]-5′-yl)benzenesulfonamide]"
12,600 to 1000,"CCOC(=O)N1CCC(Nc2cc(NS(=O)(=O)c3ccc(F)cc3F)cc3c2NC(=O)C32CCC2)CC1 [Compound 22, Ethyl 4-((5′-(2,4-difluorophenylsulfonamido)-2′-oxospiro [cyclobutane-1,3′-indolin]-7′-yl)amino)piperidine-1-carboxylate]"
13,< 600,"COc1ccccc1S(=O)(=O)Nc1cc(OC2CCN(C(C)C)CC2)c2c(c1)C1(CCC1)C(=O)N2 [Compound 136, N-(7′-((1-isopropylpiperidin-4-yl)oxy)-2′-oxospiro[cyclobutane-1,3′-indolin]-5′-yl)-2-methoxybenzenesulfonamide]"
14,> 1000,"O=C1Nc2c(NC3CCCCC3)cc(NS(=O)(=O)c3ccc(F)cc3F)cc2C12CCC2 [Compound 20, N-(7′-(cyclohexylamino)-2′-oxospiro[cyclobutane-1,3′-indolin]-5′-yl)-2,4-difluorobenzenesulfonamide]"
15,< 600,"CCN1CCCC(Nc2cc(NS(=O)(=O)c3ccc(F)cc3F)cc3c2NC(=O)C32CCC2)C1 (stereo not drawn) [Compound 70, N-(7′-((1-ethylpiperidin-3-yl)amino)-2′-oxospiro[cyclobutane-1,3′-indolin]-5′-yl)-2,4-difluorobenzenesulfonamide]"
